Data: US20240216396A1, “NEUROACTIVE STEROID FOR USE IN TREATING MAJOR DEPRESSIVE DISORDER AND […] A LACTATING FEMALE” (Sage Therapeutics, Inc., priority 2021, published 2024)

Legend:
[1] = Safety and tolerability in healthy lactating participants; format: in vivo, human
Excerpt: (§1) Compound (1) is an investigational, synthetic, oral neuroactive steroid under investigation as a once-daily therapy for major depressive disorder and postpartum depression. This open-label study evaluated the extent of Compound (1) transfer into breast milk, breast milk production (volume), pharmacokinetics (PK), plasma protein binding, safety, and tolerability in healthy lactating participants.
(§2) Healthy volunteers (N=15) aged 18-45 years, >12 weeks postpartum, actively lactating, and pumping or breast feeding ≥3 times per day orally self-administered Compound (1) 30 mg once-daily with food for 5 days. Breast milk was collected from Day −3 through Day 12. Blood samples for PK and plasma protein binding analysis were collected predose (Day 1), on Days 5-6, and during follow-up (Days 7, 9, and 12). The relationship between plasma and breast milk concentrations was examined with population PK modeling.

[2] = Open-label study: transfer of Compound (1) into breast milk of healthy lactating women; format: in vivo, human
Excerpt: as §1, §2

[3] = system: plasma protein; assay: Plasma protein binding analysis of blood samples from healthy lactating participants; format: in vitro ADME; settings: female, human, across participants, 30 mg once-daily oral with food for 5 days, read-out: free fraction in plasma (plasma protein binding)
Excerpt: as §1, §2

[4] = Breast milk production (volume) in healthy lactating participants; format: in vivo, human; settings: 30 mg once-daily oral for 5 days; inter-participant variability noted
Excerpt: as §1, §2

[5] = Population PK modeling of the relationship between plasma and breast milk concentrations; format: in vivo, human
Description: as §2

[6] = system: synaptic and extrasynaptic GABAA receptors; settings: cited from earlier work

SMILES: C[C@@]1(O)CC[C@H]2[C@H](CC[C@@H]3[C@@H]2CC[C@]2(C)[C@@H](C(=O)Cn4cc(C#N)cn4)CC[C@@H]32)C1 [Compound (1), 1-(2-((3R,5R,8R,9R,10S,13S,14S,17S)-3-hydroxy-3,13-dimethylhexadecahydro-1H-cyclopenta[a]phenanthren-17-yl)-2-oxoethyl)-1H-pyrazole-4-carbonitrile]
- tolerability ([1]; 30 mg for 5 days, healthy lactating participants): well-tolerated
- adverse events reported ([1]; 30 mg once-daily oral for 5 days, N=15): No deaths, serious adverse events, moderate or severe treatment-emergent adverse events (TEAEs), or TEAEs leading to discontinuation or study withdrawal were reported
- breast milk concentration relative to plasma concentration ([2]; 30 mg once-daily for 5 days): approximately one-half
- daily infant dose ([2]; Day 5, 30 mg once-daily oral for 5 days): 0.00125 mg/kg/day
- estimated mean relative infant dose (RID) ([2]; Day 5, 30 mg once-daily oral for 5 days, compared to maternal dose): 0.357%
- fraction unbound [3]: ≤ 0.0052
- decrease of volume of milk collected from baseline [4]: 8.3%
- Kp ([5]; female, human, breast milk/plasma, oral, 30 mg, constant, population PK modeling, read-out: partition coefficient between milk and plasma): 0.501
- relationship of plasma concentrations with time or collected milk volume ([5]; in vivo): no apparent relationship
- between-subject variability in milk/plasma partitioning ([5]; population PK modeling): 23%
- action on GABAA receptors [6]: positive allosteric modulator
